# Results reported in patent US10045978B2 (AB SCIENCE, priority 2010, dated 2018).
# Tests used:
# [1] = test system: patients with indolent mastocytosis with handicap bearing the D816V c-Kit mutation; assay: Example 2 phase 2a study, safety; assay type: in vivo, human
# [2] = test system: patients with smoldering systemic, indolent systemic or cutaneous mastocytosis with handicap; assay: phase 3 study AB06006, masitinib versus placebo; assay type: in vivo, human
# Text: The trial lasted 24 weeks with possible extension. In accordance with protocol amendment version 7.0 (v7), the study population was amended to a more restricted subpopulation of mastocytosis. […] The trial lasted 24 weeks with possible extension. […] To be noted, for the purpose of efficacy analysis a patient was classified as severe if they suffered from at least one of the main handicaps constituting the primary endpoint: […] The criterion of “at least two of the following handicaps” including handicaps on stools and micturition, was relaxed to “at least one of the main handicaps” (i.e. pruritus, flushes, depression and fatigue). […] At each patient evaluation between weeks 8 and 24, each of the above four severe symptoms was evaluated. […] In this case, missing data was imputed as failure (missing=failure as primary analysis). • Case 2: discontinuation for a documented reason excluding toxicity or lack of efficacy. In this case, non-observed values can be considered as Missing At Random (MAR), and no imputation will be done (Observed Cases). • Replacement of missing value for patients present at the visit: If data was missing despite the patient being present at the visit, said missing data was not replaced. Secondary Analysis: […] (asthenia). • A second group comprised patients diagnosed as having severe indolent systemic mastocytosis, severe smoldering systemic mastocytosis, or severe cutaneous mastocytosis. […] This group provides comparative analysis for patient selection according to variant of mastocytosis (i.e. systemic versus cutaneous). • A third group comprised all randomized patients to study AB06006, corresponding therefore to the least restricted population, comprising patients with severe/non severe indolent and smoldering systemic mastocytosis, and severe/non severe cutaneous mastocytosis. This group provides comparative analysis based on patient selection according to severity of mast cell mediator release symptoms. […] ≥40. Diff=absolute difference in response rates between treatment-arms of a given population (masitinib arm minus placebo arm). Factor Diff=ratio of 'Diff' between compared populations showing relative superiority of response rate for severe systemic population over the comparator population. […] ****PF=patients with both pruritus and flushes handicap at baseline.
# [3] = test system: patients with indolent forms of mastocytosis with handicap; assay: Example 1 phase 2a study, safety assessment
# [4] = moderate baseline handicap, all patients
# [5] = moderate baseline handicap, all patients (n = 110)
# [6] = moderate baseline handicap, severe indolent/smoldering systemic
# [7] = moderate baseline handicap, severe indolent/smoldering systemic (n = 67)
# [8] = moderate baseline handicap, severe systemic vs all patients
# [9] = severe baseline handicap, severe cutaneous/indolent/smoldering
# [10] = severe baseline handicap, severe cutaneous/indolent/smoldering (n = 110)
# [11] = severe baseline handicap, severe indolent/smoldering systemic
# [12] = severe baseline handicap, severe indolent/smoldering systemic (n = 67)
# [13] = severe baseline handicap, severe systemic vs severe cutaneous/indolent/smoldering
smiles,measurement,setting,value
"Cc1ccc(NC(=O)c2ccc(CN3CCN(C)CC3)cc2)cc1Nc1nc(-c2cccnc2)cs1 [masitinib, 4-(4-methylpiperazin-1-ylmethyl)-N-[4-methyl-3-(4-pyridin-3ylthiazol-2-ylamino)phenyl]benzamide]",patients with at least one adverse event suspected to be related to masitinib,[1]; 20 patients,95%
same,patients who discontinued treatment because of a suspected adverse event,[1]; five patients,24%
same,patients with suspected adverse event that led to dose reduction,[1]; in vivo,Two
same,patients with at least one serious adverse event suspected to be related to masitinib,[1]; two patients,9%
same,2H[75%] Diff (masitinib arm minus placebo arm),[2]; [4],2.9%
same,3H[75%] Diff (masitinib arm minus placebo arm),[2]; [4],2.3%
same,4H[75%] Diff (masitinib arm minus placebo arm),[2]; [4],0.4%
same,PF Diff (masitinib arm minus placebo arm),[2]; [4],0.2%
same,2H[75%] cumulative response,[2]; [5],23.3%
same,3H[75%] cumulative response,[2]; [5],20.3%
same,4H[75%] cumulative response,[2]; [5],16.3%
same,PF cumulative response,[2]; [5],26.9%
same,2H[75%] Diff (masitinib arm minus placebo arm),[2]; [6],12.2%
same,3H[75%] Diff (masitinib arm minus placebo arm),[2]; [6],12.8%
same,4H[75%] Diff (masitinib arm minus placebo arm),[2]; [6],10.1%
same,PF Diff (masitinib arm minus placebo arm),[2]; [6],10.7%
same,2H[75%] cumulative response,[2]; [7],28.2%
same,3H[75%] cumulative response,[2]; [7],24.8%
same,4H[75%] cumulative response,[2]; [7],19.6%
same,PF cumulative response,[2]; [7],28.7%
same,2H[75%] Factor Diff,[2]; [8],4.2
same,3H[75%] Factor Diff,[2]; [8],5.6
same,4H[75%] Factor Diff,[2]; [8],25.3
same,PF Factor Diff,[2]; [8],53.5
same,2H[75%] Diff (masitinib arm minus placebo arm),[2]; [9],7.4%
same,3H[75%] Diff (masitinib arm minus placebo arm),[2]; [9],6.3%
same,4H[75%] Diff (masitinib arm minus placebo arm),[2]; [9],3.3%
same,PF Diff (masitinib arm minus placebo arm),[2]; [9],6.9%
same,2H[75%] cumulative response,[2]; [10],22.0%
same,3H[75%] cumulative response,[2]; [10],20.0%
same,4H[75%] cumulative response,[2]; [10],15.4%
same,PF cumulative response,[2]; [10],30.6%
same,2H[75%] Diff (masitinib arm minus placebo arm),[2]; [11],16.5%
same,3H[75%] Diff (masitinib arm minus placebo arm),[2]; [11],15.2%
same,4H[75%] Diff (masitinib arm minus placebo arm),[2]; [11],11.1%
same,PF Diff (masitinib arm minus placebo arm),[2]; [11],17.8%
same,2H[75%] cumulative response,[2]; [12],27.2%
same,3H[75%] cumulative response,[2]; [12],24.9%
same,4H[75%] cumulative response,[2]; [12],18.6%
same,PF cumulative response,[2]; [12],35.4%
same,2H[75%] Factor Diff,[2]; [13],2.2
same,3H[75%] Factor Diff,[2]; [13],2.4
same,4H[75%] Factor Diff,[2]; [13],3.4
same,PF Factor Diff,[2]; [13],2.6
same,Early study discontinuation: Adverse event,[3]; All (N = 25),"12 N, %"
same,incidence of skin rash,[3]; after W12,no incidence
same,At least one suspected AE,"[3]; extension phase, All (N = 17)",10 (58.8%) subjects (%)
same,suspected AE: Abdominal pain,"[3]; extension phase, All (N = 17)",1 (5.9%) subjects (%)
same,suspected AE: Aphthous stomatitis,"[3]; extension phase, All (N = 17)",1 (5.9%) subjects (%)
same,suspected AE: Arthralgia,"[3]; extension phase, All (N = 17)",1 (5.9%) subjects (%)
same,suspected AE: Blepharitis,"[3]; extension phase, All (N = 17)",1 (5.9%) subjects (%)
same,suspected AE: Cytolytic hepatitis,"[3]; extension phase, All (N = 17)",1 (5.9%) subjects (%)
same,suspected AE: Dermatitis psoriasiform,"[3]; extension phase, All (N = 17)",1 (5.9%) subjects (%)
same,suspected AE: Eczema,"[3]; extension phase, All (N = 17)",1 (5.9%) subjects (%)
same,suspected AE: Gamma-glutamyltransferase increased,"[3]; extension phase, All (N = 17)",1 (5.9%) subjects (%)
same,suspected AE: Gingivitis,"[3]; extension phase, All (N = 17)",1 (5.9%) subjects (%)
same,suspected AE: Muscle spasms,"[3]; extension phase, All (N = 17)",1 (5.9%) subjects (%)
same,suspected AE: Vomiting,"[3]; extension phase, All (N = 17)",1 (5.9%) subjects (%)
same,At least one suspected AE,"[3]; extension phase, Mild",6 (35.3%) subjects (%)
same,suspected AE: Arthralgia,"[3]; extension phase, Mild",1 (5.9%) subjects (%)
same,suspected AE: Blepharitis,"[3]; extension phase, Mild",1 (5.9%) subjects (%)
same,suspected AE: Dermatitis psoriasiform,"[3]; extension phase, Mild",1 (5.9%) subjects (%)
same,suspected AE: Edema—all categories,"[3]; extension phase, Mild",1 (5.9%) subjects (%)
same,suspected AE: Gamma-glutamyltransferase increased,"[3]; extension phase, Mild",1 (5.9%) subjects (%)
same,suspected AE: Gingivitis,"[3]; extension phase, Mild",1 (5.9%) subjects (%)
same,suspected AE: Nausea,"[3]; extension phase, Mild",2 (11.8%) subjects (%)
same,suspected AE: Nausea/Vomiting,"[3]; extension phase, Mild",2 (11.8%) subjects (%)
same,At least one suspected AE,"[3]; extension phase, Moderate",5 (29.4%) subjects (%)
same,suspected AE: Abdominal pain,"[3]; extension phase, Moderate",1 (5.9%) subjects (%)
same,suspected AE: Cytolytic hepatitis,"[3]; extension phase, Moderate",1 (5.9%) subjects (%)
same,suspected AE: Eczema,"[3]; extension phase, Moderate",1 (5.9%) subjects (%)
same,suspected AE: Muscle spasms,"[3]; extension phase, Moderate",1 (5.9%) subjects (%)
same,suspected AE: Nausea/Vomiting,"[3]; extension phase, Moderate",1 (5.9%) subjects (%)
same,suspected AE: Vomiting,"[3]; extension phase, Moderate",1 (5.9%) subjects (%)
same,At least one suspected AE,"[3]; extension phase, Severe",1 (5.9%) subjects (%)
same,suspected AE: Aphthous stomatitis,"[3]; extension phase, Severe",1 (5.9%) subjects (%)
same,At least one suspected AE,"[3]; initial phase, Mild",11 (44.0%) subjects (%)
same,suspected AE: Abdominal pain,"[3]; initial phase, Mild",2 (8.0%) subjects (%)
same,suspected AE: Diarrhea,"[3]; initial phase, Mild",1 (4.0%) subjects (%)
same,suspected AE: Edema - all categories,"[3]; initial phase, Mild",3 (12.0%) subjects (%)
same,suspected AE: Muscle spasms,"[3]; initial phase, Mild",1 (4.0%) subjects (%)
same,suspected AE: Nausea,"[3]; initial phase, Mild",5 (20.0%) subjects (%)
same,suspected AE: Nausea/Vomiting,"[3]; initial phase, Mild",6 (24.0%) subjects (%)
same,suspected AE: Vomiting,"[3]; initial phase, Mild",1 (4.0%) subjects (%)
same,At least one suspected AE,"[3]; initial phase, Moderate",19 (76.0%) subjects (%)
same,suspected AE: Abdominal pain,"[3]; initial phase, Moderate",3 (12.0%) subjects (%)
same,suspected AE: Asthaenia,"[3]; initial phase, Moderate",4 (16.0%) subjects (%)
same,suspected AE: Diarrhea,"[3]; initial phase, Moderate",2 (8.0%) subjects (%)
same,suspected AE: Dyspnoea,"[3]; initial phase, Moderate",3 (12.0%) subjects (%)
same,suspected AE: Edema - all categories,"[3]; initial phase, Moderate",8 (32.0%) subjects (%)
same,suspected AE: Eructation,"[3]; initial phase, Moderate",2 (8.0%) subjects (%)
same,suspected AE: Headache,"[3]; initial phase, Moderate",5 (20.0%) subjects (%)
same,suspected AE: Muscle spasms,"[3]; initial phase, Moderate",7 (28.0%) subjects (%)
same,suspected AE: Nausea,"[3]; initial phase, Moderate",7 (28.0%) subjects (%)
same,suspected AE: Nausea/Vomiting,"[3]; initial phase, Moderate",8 (32.0%) subjects (%)
same,suspected AE: Rash - all categories,"[3]; initial phase, Moderate",6 (24.0%) subjects (%)
same,suspected AE: Vomiting,"[3]; initial phase, Moderate",4 (16.0%) subjects (%)
same,At least one suspected AE,"[3]; initial phase, Severe",9 (36.0%) subjects (%)
same,suspected AE: Asthaenia,"[3]; initial phase, Severe",3 (12.0%) subjects (%)
same,suspected AE: Diarrhea,"[3]; initial phase, Severe",1 (4.0%) subjects (%)
same,suspected AE: Edema - all categories,"[3]; initial phase, Severe",2 (8.0%) subjects (%)
same,suspected AE: Eructation,"[3]; initial phase, Severe",1 (4.0%) subjects (%)
same,suspected AE: Muscle spasms,"[3]; initial phase, Severe",1 (4.0%) subjects (%)
same,suspected AE: Nausea,"[3]; initial phase, Severe",1 (4.0%) subjects (%)
same,suspected AE: Nausea/Vomiting,"[3]; initial phase, Severe",1 (4.0%) subjects (%)
same,suspected AE: Rash - all categories,"[3]; initial phase, Severe",2 (8.0%) subjects (%)
same,treatment-related SAEs,"[3]; one patient, two episodes of agranulocytosis at 3 mg/kg/day",Two
same,patients who withdrew due to occurrence of AEs,"[3]; prior to W12, 2/25 patients",8%
